Measurements as given in patent US20250042968A1, “EPHRIN LIGAND MIMETIC PEPTIDES FOR THE TREATMENT OF NEURODEGENERATIVE DISEASES” (University of Miami, priority 2022, published 2025).
“Also recorded” adds a separate entry of the source.

Assays:
isolated mouse RGCs = experiment: Immunofluorescent staining of TUBB3 and F-actin in isolated mouse RGCs; assay type: cell-based; settings: 1 μM, 4 days
From the text: (§1) In order to assess the effect of xEFN peptide supplementation on Eph-receptor modulation, various in vitro assays were employed on isolated mouse RGCs. […] Similarly, xEFN_RBD1, and 3 inhibited the phosphorylation of Rac1 by pre-clustered ephirnA5 ligand stimulation. […] TUBB3 is a marker specific for neuronal microtubules and functions as a neuronal-specific marker.

RhoA = experiment: Western blot of RhoA in mRGCs; assay type: cell-based, mouse; settings: 500 nM
Procedure: (§2) On day 4, cells were treated with pre-clustered recombinant mouse EfnA5-His ligand [(+) Control, using anti-His_Tag antibody for 30 minutes] for 2 hours. Cells were then lysed in RIPA buffer containing protease and phosphatase inhibitor cocktails and maintained on ice. Protein was quantified using a BCA assay, and 10 μg of total protein was run on a TGX stain-free Any kD gel (BioRad) and transferred using the trans-blot turbo system (BioRad). Following transfer and blocking in 5% nonfat milk for 1 h, blots were probed with antibodies against RhoA, phosphorylated Rac1, ARHGEF15, Ephexin-1, or beta-actin as an endogenous loading control overnight at 4° C. Blots were then washed 3×5 min in PBS-T and incubated in the appropriate HRP-conjugated secondary antibody for 2 h at room temperature. Blots were imaged using chemiluminescent ECL substrate (Pierce) on a BioRad ChemiDoc MP imaging system and software.

EphB2 = biological target: T1, EphB2 (Mus musculus, UniProt P54763); experiment: Western blot of EphB2 expression in isolated mouse RGCs; assay type: cell-based; settings: 1 μM, 4 days
T1 construct: endogenous in cells; host or cells: primary mouse retinal ganglion cells
T1 sequence (P54763 19-986): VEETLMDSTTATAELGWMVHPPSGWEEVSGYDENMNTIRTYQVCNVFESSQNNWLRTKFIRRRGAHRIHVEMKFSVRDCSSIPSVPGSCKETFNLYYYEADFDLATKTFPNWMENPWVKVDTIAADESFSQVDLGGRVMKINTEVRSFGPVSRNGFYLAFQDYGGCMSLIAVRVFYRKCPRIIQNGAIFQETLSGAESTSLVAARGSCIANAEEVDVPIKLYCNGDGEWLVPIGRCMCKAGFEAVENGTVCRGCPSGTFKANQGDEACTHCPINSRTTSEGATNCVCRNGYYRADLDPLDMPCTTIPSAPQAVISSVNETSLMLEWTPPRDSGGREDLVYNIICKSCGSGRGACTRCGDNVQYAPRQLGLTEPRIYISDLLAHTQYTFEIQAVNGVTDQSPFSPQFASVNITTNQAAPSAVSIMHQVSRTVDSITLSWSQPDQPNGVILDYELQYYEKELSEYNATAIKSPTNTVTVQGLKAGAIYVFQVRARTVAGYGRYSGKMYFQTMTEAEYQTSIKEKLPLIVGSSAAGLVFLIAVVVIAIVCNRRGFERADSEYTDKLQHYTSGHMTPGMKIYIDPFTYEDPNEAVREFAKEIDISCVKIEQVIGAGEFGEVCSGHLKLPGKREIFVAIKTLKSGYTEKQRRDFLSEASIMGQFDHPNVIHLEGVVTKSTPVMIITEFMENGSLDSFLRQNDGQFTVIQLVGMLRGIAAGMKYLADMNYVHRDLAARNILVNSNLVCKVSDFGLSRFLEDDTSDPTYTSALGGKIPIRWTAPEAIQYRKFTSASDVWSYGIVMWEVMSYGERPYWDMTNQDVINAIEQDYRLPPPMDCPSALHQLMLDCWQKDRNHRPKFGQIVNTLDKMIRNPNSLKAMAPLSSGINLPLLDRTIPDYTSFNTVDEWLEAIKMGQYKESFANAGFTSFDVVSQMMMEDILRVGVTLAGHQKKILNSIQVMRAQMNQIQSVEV
From the text: as §1

mouse RGC growth cones = experiment: RGC growth cone collapse analysis; assay type: cell-based; settings: 500 nM, 4 days, mouse RGC cultures
Procedure: One of the first signs of neuronal dysfunction is axonal growth cone collapse, and it is one of the mechanisms through which Eph-receptors exert their repulsive stimuli for axonal guidance. […] At the 48 h time point, cells were stimulated by the addition of 2 μg of pre-clustered recombinant mouse EfnA5-His (R&D Systems) for 1 hour. Following this stimulation, cells were fixed in 4% paraformaldehyde for 5 minutes, permeabilized with 0.05% Triton X-100, and blocked with 5% FBS for 1 h. Cells were then incubated in primary antibody against TUBB3 overnight at 4° C., washed, and incubated in AlexaFluor 488-conjugated secondary for 2 h at room temperature. After washing, cell cytoskeleton was counterstained with AlexaFluor 594-conjugated phalloidin for 30 min at 37° C. (ThermoFisher) and mounted with SlowFade Gold Anti-fade media with DAPI. Cells were then imaged using an EVOS FL Auto fluorescent microscope. Images were analyzed in ImageJ by a blinded investigator and a growth cone collapse was calculated manually.

phosphorylated Rac1 = experiment: Western blot of phosphorylated Rac1 in mRGCs; assay type: cell-based, mouse; settings: 500 nM
Procedure: as §2

[1] = tested on: RGCs and optic nerve axons after optic nerve crush (ONC); experiment: Mouse model of optic nerve crush (ONC), intravitreal xEFN peptides; assay type: in vivo; settings: for RGC pool rescue / survival over PBS-treated controls: intravitreal, 4 weeks after injury; for regenerating axons compared to controls: starting at 100 μm past the injury site and throughout the analysis window
Procedure: Antagonizing forward Eph signaling has been proven beneficial in a number of CNS disorders (Neurogastroenterol Motil. 2020:e13782; Acta Neuropathol Commun. 2018; 6(1):111; Proc Natl Acad Sci USA. 2014 Jul. 8; 111(27):9959-64; Eur J Neurosci. 2014 Oct; 40(7):3021-31; Neuroscience. 2013 Jun. 25; 241:89-99). The use of xEFN peptides as multi-Eph receptor antagonists was evaluated in treating retinal degeneration induced by optic nerve crush (ONC). The ONC model is the most commonly used model for the study of glaucoma and other optic neuropathies. All animal experiments were performed in compliance with the National Institutes of Health (Bethesda, MD, USA) Guide for the Care and Use of Laboratory Animals and the ARVO Statement for the Use of Animals in Ophthalmic and Vision Research. Animal protocols were reviewed and approved by the Institutional Animal Care and Use Committee of the University of Miami. […] With the use of jeweler's forceps (Dumont No. 5; tip dimension, 0.1×0.06 mm), the optic nerve is then crushed for 10 seconds at a location 2 mm distal from its insertion point into the globe. […] […]. At 4 weeks post-injury, animals were euthanized and enucleated for extraction of the retinas and optic nerves. Retinas were stained by immunohistochemistry for TUBB3 and RGCs were manually counted in each animal. Optic nerves were placed into tissue clearing solution for 1 week and then imaged for the CTB-647 label as whole mounts using a Leica SP8 Laser Scanning Confocal microscope (Leica Microsystems). Axonal projections were quantified at 100 μm intervals along the optic nerve track for up to 2 mm past the crush site using the fluorometric intensity measurement and analysis tool in the Leica LAS X microscopy suite software package, using the contralateral nerve (not CTB-injected) as a background reading for 647 nm fluorometric intensity in each sample.

FTIKFQEFSPNLWGL [xEFN_RBD3]
neuroprotection seen by TUBB3 expression versus control in vitro cultures (isolated mouse RGCs): neuroprotection; also recorded: effectively preserved RGCs
expression of the GTPase RhoA (RhoA): downregulates
expression of EphB2 (western blot) (EphB2): reduced expression; also recorded: effectively decreased expression
number of collapsed growth cones (mouse RGC growth cones): significant decrease
phosphorylation of Rac1 by pre-clustered ephrinA5 ligand stimulation (phosphorylated Rac1): inhibited
RGC survival ([1]; 6 μg intravitreal twice (immediately after ONC and 7 days after), 4 weeks, compared to uninjured contralateral retina): 44.17+/−2.39%
axonal projections detected distal to the crush site ([1]; CTB labeled axons, 4 weeks post-ONC, analysis region 2000 μm): ≥ 2000 μm
RGC pool rescue / survival over PBS-treated controls [1]: significant rescue
RGC pool rescue / survival over PBS-treated controls ([1]; listed as xEFN_EBD3): significant RGC survival
regenerating axons compared to controls [1]: significant increase
regenerating axons compared to controls ([1]; listed as xEFN_EBD3): axonal regeneration
